Here are results for one compound from EP0012161A1, “Application of 0-(2-nitro-4-methyl-phenyl)-0-methyl-N-isopropyl-phosphoroamido-thioat for inhibition of side growth of tobacco-plants” (BAYER AG, priority 1978, dated 1980).

Holding throughout (format): in vivo
One experiment concerns Sojabohnen. Briefly: Growth inhibition in soybeans, greenhouse spray test. To be noted: 504 h; active compound concentration 0,05 %; plants with first trifoliate leaf unfolded sprayed dripping wet; increase in growth measured after 3 weeks; 100 % = growth standstill; read-out: Wuchshemmung in %. From the text: (§1) Lösungsmittel: 30 Gewichtsteile Dimethylformamid Emulgator: 1 Gewichtsteil Polyoxyethylen-SorbitanMonolaurat
(§2) Zur Herstellung einer zweckmäßigen Wirkstoffzubereitung vermischt man 1 Gewichtsteil Wirkstoff mit den angegebenen Mengen Lösungsmittel und Emulgator und füllt mit Wasser auf die gewünschte Konzentration auf.
Sojabohnenpflanzen werden im Gewächshaus bis zur vollen Entfaltung des ersten Folgeblattes angezogen. In diesem Stadium werden die Pflanzen tropfnaß mit den Wirkstoffzubereitungen besprüht. Nach 3 Wochen wird bei allen Pflanzen der Zuwachs gemessen und die Wuchshemmung in % des Zuwachses der Kontrollpflanzen berechnet. Es bedeuten 100 % den Stillstand des Wachstums und O % ein Wachstum entsprechend dem der Kontrollpflanzen.

The subject of another experiment is Weizen. Briefly: Growth inhibition in wheat, greenhouse spray test. The conditions noted are these: 504 h; active compound concentration 0,05 %; plants at 2-leaf stage sprayed dripping wet; increase in growth measured after 3 weeks; 100 = growth standstill; read-out: Wuchshemmung in %.
From the text: as §1, §2
Weizenpflanzen werden im Gewächshaus bis zum 2-BlattStadium angezogen. In diesem Stadium werden die Pflanzen tropfnaß mit den Wirkstoffzubereitungen besprüht. Nach 3 Wochen wird bei allen Pflanzen der Zuwachs gemessen und die Wuchshemmung in % des Zuwachses der Kontrollpflanzen berechnet. Es bedeuten 100 t den Stillstand des Wachstums und 0 % ein Wachstum entsprechend dem der Kontrollpflanzen.

In another experiment the test system is Alnus glutinosa. In words: Growth inhibition in woody plants (Alnus glutinosa), greenhouse spray test. To be noted: 1008 h, one-year seedlings sprayed to run-off, increase in growth measured after 6 weeks, 100 % = growth standstill, 0 % = growth as control, read-out: Wuchshemmung in %.
From the text: (§3) Lösungsmittel : 30 Gewichtsteile Dimethylformamid Emulgator: 1 Gewichtsteil Polyoxyethylen-SorbitanMonolaurat
as §2
(§4) Einjährige Sämlinge mit einer Wuchshöhe von 25 cm werden mit den Wirkstoffzubereitungen bis zum Abtropfen besprüht. Nach 6 Wochen Wachstum im Gewächshaus wird der Zuwachs gemessen und die Wuchshemmung in Prozent des Zuwachses der Kontrollpflanzen berechnet. 100 % bedeuten den Stillstand des Wachstums und 0 % ein Wachstum entsprechend dem der Kontrollpflanzen.

A further experiment has as its system Tabak. In words: Inhibition of side shoot growth in tobacco, greenhouse spray test after decapitation. The conditions noted are these: 504 h, decapitated plants sprayed to run-off, weight of side shoots after 3 weeks versus control, 100 % = no side shoots, read-out: Wuchshemmung in %. From the text: Lösungsmittel: 30 Gewichtsteile Dimethylformamid Emulgator: 1 Gewichtsteil Polyoxyethylensorbitan-Monolaurat
Zur Herstellung einer zweckmäßigen Wirkstoffzubereitung vermischt man 1 Gewichsteil Wirkstoff mit den angegebenen Mengen Lösungsmittel und.Emulgator und füllt mit Wasser auf die gewünschte Konzentration auf.
Tabakpflanzen werden im Gewächshaus bis zur Entfaltung des 7. Laubblattes angezogen. In diesem Stadium wird die apikale Vegetationsspitze der Pflanzen entfernt und die Pflanzen werden bis zum Abtropfen mit den Wirkstoffzubereitungen besprüht. Nach 3 Wochen werden die Seitentriebe der Pflanzen herausgebrochen und gewogen. Das Gewicht der Seitentriebe der behandelten Pflanzen wird mit dem der Kontrollpflanzen verglichen. 100 % Hemmung bedeutet das Fehlen von Seitentrieben und 0 t ein Wachstum der Seitentriebe entsprechend dem der Kontrollpflanzen.

A further experiment relates to Acer pseudoplatanus. In words: Growth inhibition in woody plants (Acer pseudoplatanus), greenhouse spray test. To be noted: 1008 h, one-year seedlings sprayed to run-off, increase in growth measured after 6 weeks, 100 % = growth standstill, 0 % = growth as control, read-out: Wuchshemmung in %.
From the text: as §3, §2, §4

Where [1] appears, read: active compound concentration 0,1 %.
[2] abbreviates: active compound concentration 0,4 %.

Molecules are shown by their SMILES.

On to `COP(=S)(NC(C)C)Oc1ccc(C)cc1[N+](=O)[O-]` (stereo not drawn), for which the results for the inhibition at 0.05 % with Sojabohnen and in the experiment on Weizen were 80% and 35%, respectively. The inhibition at 0.1 % with Alnus glutinosa (setting [1]) worked out at 50%; with Acer pseudoplatanus (setting [1]) it was 65%. Further, the inhibition at 0.4 % in the experiment on Alnus glutinosa (setting [2]) is 75%; in the experiment with Tabak (setting [2]) it was 99%; with Acer pseudoplatanus (setting [2]) it was 83%. Further, the inhibition at 0.2 % in the experiment on Tabak (active compound concentration 0,2 %) came to 92%. In the experiment with Tabak (active compound concentration 0,6 %), the inhibition at 0.6 % stood at 99%.
